Measurements published in patent US20220117938A1, “COMBINATON THERAPY WITH A DON PRODRUG AND AN IMMUNE CHECKPOINT INHIBITOR” (DRACEN PHARMACEUTICALS, INC., priority 2019, published 2022).

What was measured:
LK-2 tumors = assay: Anti-tumor efficacy of Compound 1 in the LK-2 xenograft model (Example 13); assay type: in vivo, mice
Method: Female BALB/c nude mice were inoculated subcutaneously in the right flank with LK-2 cells for tumor development. Four days after tumor inoculation, mice with tumor sizes reaching approximately 171 mm^3 (range from 112 mm^3 to 222 mm^3) were selected and assigned into groups using stratified randomization with 8 mice per group based upon their tumor volumes. The treatments were started from the day of randomization (defined as D0), Group 1 was treated with Vehicle control, 10 ml/kg, IP, bid×19; Group 2 was treated with Compound 1, 1.4 mg/kg, SC, 5d ON, 2d OFF×2 cycles, followed Compound 1, 2.8 mg/kg, SC, 5d ON, 2 d OFF×1 cycle; Group 3 was treated with Compound 1, 7 mg/kg, IV, tiw (Mon, Wed, Fri)×3 cycles; and Group 4 was treated with Compound 1, 3.3 mg/kg, IV, tiw (Mon, Wed, Fri)×3 cycles. The tumor sizes were measured two times per week during the treatment. The entire study was terminated on D18 after start of the treatment. All treatments were well-tolerated without any adverse effects or significant body weight loss.

EL4 tumors = assay: Anti-tumor efficacy of Compound 1 with and without anti-PD-1 in the subcutaneous EL4 murine lymphoma model (Example 2C); assay type: in vivo, Mus musculus; conditions: for ILS (%) / MST: endpoint tumor volume 2000 mm^3
Method: Female C57BL/6 mice were inoculated subcutaneously at the right flank with EL4 cells for tumor development. Five days after tumor inoculation, 48 mice with tumor size ranging from 50-76 mm^3 (average tumor size 65 mm^3) were selected and assigned into 6 groups using stratified randomization with 8 mice per group based upon their tumor volumes. The treatments were started from the day of randomization (defined as D0), Group 1 was treated with Vehicle (Tween 80:Ethanol:Saline—5:5:90 v/v/v), s.c., qd×4, Group 2 was treated with anti-PD-1 10 mg/kg i.p. q4d×4, Group 3 was treated with Compound 1 0.3 mg/kg s.c. q.d.×14, Group 4 was treated with Compound 1 0.3 mg/kg s.c. q.d.×14+anti-PD-1 10 mg/kg i.p. q4d×4, Group 5 was treated with Compound 1 1 mg/kg s.c. q.d.×14, Group 6 was treated with Compound 1 1 mg/kg s.c. q.d.×14+anti-PD-1 10 mg/kg i.p. q4d×4. The tumor sizes were measured three times per week during the treatment. The entire study was terminated on D19 after start of the treatment.
Animal Species: Mus musculus; Strain: […]; Age: 6-8 weeks; Sex: female; Body weight (at treatment start): 17-22 g.
The EL4 tumor cells were maintained in vitro as a monolayer culture in DMEM medium supplemented with 10% heat inactivated horse serum and 100 μg/mL penicillin streptomycin at 37° C. in an atmosphere of 5% CO2 in air. The tumor cells were routinely subcultured twice weekly by trypsin-EDTA treatment. The cells growing to a confluency around 70%-80% were harvested and counted for tumor inoculation. The cultured EL4 were harvested, re-suspended in base medium at a density of […] with viability>90%. Each mouse was inoculated subcutaneously at the right flank with 2×10^5 in 0.1 ml base medium for tumor development.
The treatments were started on day 5 after tumor inoculation when the tumor size reached 50-76 mm^3 (average tumor size 65 mm^3). Each group consisted of 8 tumor bearing mice. The testing article was administrated at the dosing volume indicated to the mice according to the predetermined regimen as shown Table 2C-1. Testing article formulations were prepared according to standard procedures. Details regarding tumor measurements and endpoints, and statistical analysis are provided in EXAMPLE 3.
Tumor sizes were measured three times a week in two dimensions using a caliper, and the volume expressed in mm^3 using the formula: V=0.5 a×b^2 where a and b are the long and short diameters of the tumor, respectively. The tumor sizes were then used for the calculations of both tumor growth inhibition (TGI) and T/C values.
TGI is calculated for each group using the formula: […]
TVTreatment_DayN is the average tumor volume of a treatment group on a given day, TVTreatment_Day0 is the average tumor volume of the treatment group on the first day of treatment, TVVehicle_DayN is the average tumor volume of the vehicle control group on a given day, and TVVehicle_Day0 is the average tumor volume of the vehicle group on the first day of treatment.
The T/C value (in percent) is an indication of antitumor effectiveness, T/C (%)=RTVTreatment/RTVControl×100% (RTVTreatment: the mean RTV of the treatment group; RTVControl: the mean RTV of the vehicle treated group). RTV (relative tumor volume)=TVDayN/TVDay0. TVDayN and TVDay0 is the tumor volume on day N and Day 0 respectively. T/C (%)≤42% is considered as significant antitumor activity and <10% is considered as highly significant antitumor activity by the National Cancer Institute criteria.
Animal survival curve: When an individual animal reached to the termination endpoint (TV>2000 mm^3), the mouse was euthanized. The time from treatment initiation to the termination was deemed as its survival time. Survival curve was plotted by Kaplan-Meier method. Median survival time (MST) was calculated for each group. Increase of life span (ILS) was calculated according to the following formula: […]
ILS (%)>25% is considered as a biologically significant survival benefit. […]

[1] = Group 2, 1.4 mg/kg SC 5 d ON 2 d OFF x2 cycles, then 2.8 mg/kg x1 cycle
[2] = Group 3, 7 mg/kg IV tiw x3 cycles
[3] = Group 4, 3.3 mg/kg IV tiw x3 cycles

In the case of `CC(=O)N[C@@H](Cc1c[nH]c2ccccc12)C(=O)N[C@@H](CCC(=O)C=[N+]=[N-])C(=O)OC(C)C` [Compound 1, Isopropyl (S)-2-((S)-2-acetamido-3-(1H-indol-3-yl)propanamido)-6-diazo-5-oxohexanoate], the “RTV at day 11” value (LK-2 tumors; [1]) is reported as 8.13 ± 1.31, the T/C (LK-2 tumors; [1]) is reported as 84.34% and the TGI (LK-2 tumors; [1]) is reported as 19.84%. For the same compound, the “Tumor Size at day 14” value (LK-2 tumors; [1]) was 1359 ± 207 mm^3, the Tumor volume (LK-2 tumors; Group 2, 1.4 mg/kg SC 5 d ON 2 d OFF x2 cycles, then 2.8 mg/kg x1 cycle, day 0) was 171 ± 10 mm^3 and the Tumor volume (LK-2 tumors; Group 2, 1.4 mg/kg SC 5 d ON 2 d OFF x2 cycles, then 2.8 mg/kg x1 cycle, day 2) was 207 ± 19 mm^3. It also gave a Tumor volume (LK-2 tumors; Group 2, 1.4 mg/kg SC 5 d ON 2 d OFF x2 cycles, then 2.8 mg/kg x1 cycle, day 4) of 217 ± 24 mm^3, a Tumor volume (LK-2 tumors; Group 2, 1.4 mg/kg SC 5 d ON 2 d OFF x2 cycles, then 2.8 mg/kg x1 cycle, day 7) of 419 ± 81 mm^3 and a Tumor volume (LK-2 tumors; Group 2, 1.4 mg/kg SC 5 d ON 2 d OFF x2 cycles, then 2.8 mg/kg x1 cycle, day 10) of 780 ± 128 mm^3. The Tumor volume (LK-2 tumors; Group 2, 1.4 mg/kg SC 5 d ON 2 d OFF x2 cycles, then 2.8 mg/kg x1 cycle, day 14) was 1359 ± 207 mm^3, the “RTV at day 11” value (LK-2 tumors; [2]) was 6.29 ± 0.75 and the T/C (LK-2 tumors; [2]) was 65.30%. The TGI (LK-2 tumors; [2]) was 40.73%, the “Tumor Size at day 14” value (LK-2 tumors; [2]) was 1050 ± 113 mm^3 and the Tumor volume (LK-2 tumors; Group 3, 7 mg/kg IV tiw x3 cycles, day 0) was 171 ± 11 mm^3. The Tumor volume (LK-2 tumors; Group 3, 7 mg/kg IV tiw x3 cycles, day 2) was 196 ± 9 mm^3, the Tumor volume (LK-2 tumors; Group 3, 7 mg/kg IV tiw x3 cycles, day 4) was 213 ± 8 mm^3 and the Tumor volume (LK-2 tumors; Group 3, 7 mg/kg IV tiw x3 cycles, day 7) was 256 ± 13 mm^3. The Tumor volume (LK-2 tumors; Group 3, 7 mg/kg IV tiw x3 cycles, day 10) was 483 ± 44 mm^3, the Tumor volume (LK-2 tumors; Group 3, 7 mg/kg IV tiw x3 cycles, day 14) was 1050 ± 113 mm^3 and the Tumor volume (LK-2 tumors; Group 3, 7 mg/kg IV tiw x3 cycles, day 17) was 1565 ± 175 mm^3. The “RTV at day 11” value (LK-2 tumors; [3]) was 7.66 ± 0.88, the T/C (LK-2 tumors; [3]) was 79.51% and the TGI (LK-2 tumors; [3]) was 24.13%. For the same compound, the “Tumor Size at day 14” value (LK-2 tumors; [3]) was 1294 ± 172 mm^3, the Tumor volume (LK-2 tumors; Group 4, 3.3 mg/kg IV tiw x3 cycles, day 0) was 170 ± 10 mm^3 and the Tumor volume (LK-2 tumors; Group 4, 3.3 mg/kg IV tiw x3 cycles, day 2) was 193 ± 6 mm^3. For the same compound, the Tumor volume (LK-2 tumors; Group 4, 3.3 mg/kg IV tiw x3 cycles, day 4) was 211 ± 6 mm^3, the Tumor volume (LK-2 tumors; Group 4, 3.3 mg/kg IV tiw x3 cycles, day 7) was 374 ± 47 mm^3 and the Tumor volume (LK-2 tumors; Group 4, 3.3 mg/kg IV tiw x3 cycles, day 10) was 577 ± 68 mm^3. The Tumor volume (LK-2 tumors; Group 4, 3.3 mg/kg IV tiw x3 cycles, day 14) was 1294 ± 172 mm^3, the “ILS (%)” value (EL4 tumors; Compound 1 0.3 mg/kg) was 0% and the “MST” value (EL4 tumors; Compound 1 0.3 mg/kg) was 9 days. The “ILS (%)” value (EL4 tumors; Compound 1 1 mg/kg) was 35.7%, the “MST” value (EL4 tumors; Compound 1 1 mg/kg) was 14 days and the “RTV at day 7” value (EL4 tumors; Cpd. 1 0.3 mg/kg) was 21.9 ± 1.51. The “RTV at day 7” value (EL4 tumors; Cpd. 1 1 mg/kg) was 11.2 ± 1.25, the “Tumor volume (Mean ± SEM)” value (EL4 tumors; Day 0, Cpd. 1 0.3 mg/kg) was 65 ± 3 mm^3 and the “Tumor volume (Mean ± SEM)” value (EL4 tumors; Day 0, Cpd. 1 1 mg/kg) was 65 ± 3 mm^3. For the same compound, the “Tumor volume (Mean ± SEM)” value (EL4 tumors; Day 2, Cpd. 1 0.3 mg/kg) was 245 ± 6 mm^3, the “Tumor volume (Mean ± SEM)” value (EL4 tumors; Day 2, Cpd. 1 1 mg/kg) was 194 ± 15 mm^3 and the “Tumor volume (Mean ± SEM)” value (EL4 tumors; Day 5, Cpd. 1 0.3 mg/kg) was 763 ± 29 mm^3. For the same compound, the “Tumor volume (Mean ± SEM)” value (EL4 tumors; Day 5, Cpd. 1 1 mg/kg) was 613 ± 62 mm^3, the T/C (EL4 tumors; Day 7, Cpd. 1 0.3 mg/kg) was 73.86% and the TGI (EL4 tumors; Day 7, Cpd. 1 0.3 mg/kg) was 28.88%. The “Tumor volume (Mean ± SEM)” value (EL4 tumors; Day 7, Cpd. 1 0.3 mg/kg) was 1391 ± 41 mm^3, the T/C (EL4 tumors; Day 7, Cpd. 1 1 mg/kg) was 37.76% and the TGI (EL4 tumors; Day 7, Cpd. 1 1 mg/kg) was 64.42%. The “Tumor volume (Mean ± SEM)” value (EL4 tumors; Day 7, Cpd. 1 1 mg/kg) was 728 ± 96 mm^3.
